Publication PMC11200018 (2024)

Experiments:
[1] = tested on: TelQD31 (DNA, G4) GGGCGCGAAGCATTCGCGGGGTTAGGGTGGG; assay: NMR titration; conditions: 120 mM K+; 120 mM K+ buffer, pH 7.0; binding at quadruplex-duplex junction
[2] = tested on: TelQD (DNA, G4) GGGCGCGAAGCATTCGCGGGGTTAGGGTTAGGG; assay: NMR solution structure; conditions: 120 mM K+; 20 mM potassium phosphate, 100 mM KCl, pH 7.0, 25 °C; refolds to (3+1) hybrid-2
[3] = tested on: 32BrTelQD (DNA, G4, 8-bromo-2'-deoxyguanosine at 32) GGGCGCGAAGCATTCGCGGGGTTAGGGTTAGGG; assay: NMR titration and induced CD; conditions: 120 mM K+; 120 mM K+ buffer, pH 7.0; incomplete refolding, polymorphic complex

- binding [1]: yes
- binding [2]: yes
- binding [3]: yes
Compound: C[n+]1cc(NC(=O)c2ccc3ccc4ccc(C(=O)Nc5cc6ccccc6[n+](C)c5)nc4c3n2)cc2ccccc21
